≈ marks a conversion by molar mass, not a printed value. Read-outs that look alike come from different tables or passages of the source.
Experiments:
[1] = system: mouse neonatal primary cardiomyocyte culture; assay: Oxygen-glucose deprivation/reoxygenation injury in primary cardiomyocytes; type: cell-based; settings: for amelioration of loss of cell number: Hoechst 33342 staining
Experimental: In vitro ischemic injury was induced in mouse neonatal primary cardiomyocyte culture by oxygen-glucose deprivation for 18 hours and a 24 hours reoxygenation period in a humidified incubator with 5% CO2/95% air. Cardiomyocytes were incubated with the test compounds during 4 hours prior to the oxygen glucose depriviation (OGD) induction. The test compounds were also present during the OGD insult and during the 24 h-reoxygenation period. After the reoxygenation period, cell number was assessed by Hoechst 33342 staining, apoptosis was measured by determining caspase 3/7 activation, and cell membrane integrity or necrosis was measured as LDH release.
Data were expressed as mean±SD of three separate wells and individual comparisons were made with Student's t-test (SigmaPlot 9.0 program). The results were normalized to the normoxia-treated cells. Statistical significance (*) p<0.05 as compared to normoxia/DMSO-treated cells and (§) hypoxia/DMSO treated cells. Results

[2] = Aqueous solubility; type: physicochemical; settings: for solubility at 24 h: deionised water, 37 °C, pH 5.9, water, thermodynamic from solid, pH 5.90, 24 hours agitation
Experimental: Known amounts of the compounds were suspended by agitation for 24 hours. The filtrates were isolated and content of the appropriate compounds was determined by HPLC analysis.

[3] = Plasma pharmacokinetics after single intravenous and oral administration; design: species or system male C57BL/6 mice; settings: male, C57BL/6, mouse, in vivo
Experimental: To gain insight into pharmacological properties of synthetic 17,18-EEQ agonists pharmacokinetic studies were performed with two selected compounds (Comp-02 and Comp-06). These compounds were pharmacologically evaluated in plasma after single intravenous and oral administration. Therefore, male C57BL/6 mice (Janvier Labs (France), n=12 per group) were administered to the test item at a dose of 2 mg/kg (i.v.) and 8 mg/kg (p.o.), respectively. Intravenous application of Comp-02 (sodium salt in isotonic salt solution) and Comp-06 (free acid in DMSO/PEG400 20:80) was performed via the tail vein, and for oral administration via gavage. […] Blood sampling was of 100 μl were obtained at two different time point for each mouse (0.083/2 h, 0.25/4 h, 0.5/8 h and 1/24 h). Biological samples were subjected to an extraction procedure (40 μl Acetonitril+22.4 μl sample, shaking, 10 min centrifugation at 6000×g at room temperature, dilution of 50 μl supernatant 1:1 with water). For analysis 20 μl of sample were injected into the LC-MS, Accela 1250 UHPLC system, Accela Open Autosampler, Q-Exactive mass spectrometer (Thermo Fisher Scientific). Appropriate samples were used as controls: zero sample, calibration standard and QC sample. The pharmacokinetic analysis were performed applying a non-compartment model using the Kinetica 5.0 software (Thermo Scientific, Waltham, USA). All given parameters were obtained by trapezoid area calculation.

[4] = system: male B16 mice; assay: Atrial fibrillation induced by programmed electrical stimulation in a mouse model of moderate cardiac hypertrophy; type: in vivo
Experimental: Study design: To gain insight into in-vivo effect of synthetic 17,18-EEQ-agonists, atrial fibrillation studies were performed in male B16 mice as described in Westphal, C. et al., PLoS ONE. 2013, 8(8): e73490. Briefly, moderate cardiac hypertrophy was induced by continuous infusion of isoproterenol via subcutaneously implanted osmotic minipumps (Alzet) at a rate of 40 mg/kg/d for two weeks. After two weeks of treatment, ECG and electrophysiological data were recorded. Programmed electrical stimulation (PES) was performed in the right atrium or right ventricle using a digital electrophysiology lab (EP Tracer; CardioTek) to determine refractory periods and arrhythmia inducibility. Atrial arrhythmias were defined as fast (>800 bpm) electrical activity in the right atrial electrograms, with ECG P waves different to normal sinus rhythm and subsequent fast, but physiological activation of the ventricles (ECG R wave and right ventricular electrograms similar to normal sinus rhythm). Atrial fibrillation was defined as fast, irregular activity in the right atrial electrograms with irregular conduction to the ventricles (high variability of R—R intervals). Ventricular arrhythmias were defined by fast (>800 bpm) activity originating from the ventricular myocardium (change in morphology of ECG R waves and local right ventricular electrograms compared to normal sinus rhythm). During inhalation anesthesia with isoflurane (2% with 360 ml/min air flow; Univentor 400 anesthesia unit), the animals' body temperature was kept constant at 37° C. using a homeothermic blanket control unit (Hugo Sachs Elektronik, Harvard Apparatus) with rectal temperature control. After preparation of the right jugular vein, a 2 French octapolar electrophysiology catheter (CIB'ER mouse cath; NuMed) was placed in the right heart, including atrium and ventricle. PES was performed using a standardized protocol that included trains of 10 basal stimuli (S1) followed by up to 3 extra stimuli (S2-S4), delivered with a coupling interval decreasing in steps of 5 ms until ventricular or atrial refractoriness was reached. The stimulation procedures were repeated at three different basal cycle lengths (100 ms, 90 ms, 80 ms) with each animal. Occurrence and duration of inducible arrhythmias were documented. Only stimulation protocols with reproducible arrhythmias longer than five consecutive beats in ventricle and episodes longer than 350 ms in the atria were considered positive. “Arrhythmia inducibility” was calculated as the percentage of effective (positive) out of total protocols applied. Accordingly, the arrhythmia inducibility of individual animals could take a value of 0, 33, 66 or 100%. […]

[5] = single i.v. injection 2 mg/kg, vs vehicle

SMILES: CNC(=O)C(=O)NCCCC/C=C\CCCCCCCOCC(=O)O [Comp-02, 2-((13-(2-(methylamino)-2-oxoacetamido)tridec-8(Z)-en-1-yl)oxy)acetic acid]
- reduction of cellular necrosis (LDH-release) ([1]; 30 nM): 43%
- amelioration of loss of cell number ([1]; 30 nM): 35%
- reduction of cellular necrosis (LDH-release) ([1]; 10 μM): 45%
- amelioration of loss of cell number ([1]; 10 μM): 44%
- protection against OGD-induced damage, in words ([1]; 18 h OGD, 24 h reoxygenation): partially protected against OGD-induced damage
- reduction of OGD-induced apoptosis ([1]; caspase 3/7 activation, concentration not given): 43%
- reduction of OGD-induced necrosis ([1]; concentration not given): 29%
- solubility in deionised water relative to Comp-06 ([2]; 37° C.): ~10 ×
- solubility at 24 h ([2]; read-out: Average solubility at 37° C.): 68 µg/mL (≈ 191 µM)
- solubility at 24 h ([2]; read-out: Highest solubility value at 37° C.): 75 µg/mL (≈ 210 µM)
- solubility at 24 h ([2]; read-out: Lowest solubility value at 37° C.): 59 µg/mL (≈ 166 µM)
- AUC(0-inf) ([3]; iv, 2 mg/kg): 524 ng·h/mL
- bioavailability ([3]; iv, 2 mg/kg): 100%
- AUC(0-inf) ([3]; po, 8 mg/kg): 1820 ng·h/mL
- Cmax, maximal observed plasma concentration ([3]; po, 8 mg/kg): 903.8 ng/mL
- Tmax ([3]; po, 8 mg/kg): 18 min
- bioavailability ([3]; po, 8 mg/kg): 87%
- Cmax ([3]; po, 8 mg/kg, Cmax, maximal observed plasma concentration): 903 ng/mL
- obvious negative side effects ([4]; single i.v. bolus injection, 2 mg/kg body weight): did not induce any obvious negative side effects
- reduction of the inducibility of sustained arrhythmia episodes [4, 5]: 62%
- severity of induced atrial fibrillation episodes [4, 5]: significantly reduced
- sum of totally induced atrial fibrillation episodes (atrial fibrillation burden) [4, 5]: reduced significantly
